Assay results: article PMC9409351, “Differential Ganglioside and Cholesterol Depletion by Various Cyclodextrin Derivatives and Their Effect on Synaptosomal Glutamate Release” (International Journal of Molecular Sciences, 2022)
Where two headings read alike, the source gives them in different places.

How the values were obtained:
[1] = system: cholesterol content of rat cerebral synaptosomes; test: Cholesterol depletion from synaptosomes, Cholesterol Fluorometric Assay Kit; assay type: cell-based; conditions: for Cholesterol depletion in the tested concentration range: tested concentration range 0.3–100 mM; for IC50: rat cerebral synaptosomes, 40 min exposure, 37 °C
Procedure: (§1) Adult male Wistar rats purchased from Toxi-Coop Ltd. (Budapest, Hungary) were used in the experiments. Cerebral synaptosomes were prepared according to Modi and co-workers with the following modifications. Animals were decapitated and the brain was removed rapidly. Isotonic sucrose buffer (0.32 M sucrose, 4 mM HEPES-NaOH, pH 7.4) was used to homogenize the cerebrum with a Potter S Homogenizer (B. Braun, Melsungen, Germany) with 15 strokes at 1000 rpm. The homogenate was centrifuged (1500× g, 10 min, 4 °C) and the pellet was resuspended in sucrose buffer and centrifuged with the same parameters again. The two supernatants were combined and centrifuged (20,000× g, 10 min, 4 °C) to pellet the crude synaptosomes. The resulting supernatant was discarded and the pellet was washed again with an equal volume of sucrose buffer and then pelleted by centrifugation (20,000× g, 10 min, 4 °C). Synaptosomes were stored frozen using cryopreservation buffer and the slow freezing method to preserve their physiological state and integrity. Briefly, synaptosome pellets were resuspended in isotonic sucrose buffer containing 10% DMSO (v/v) and 10% FBS (v/v). To slow down the freezing process at −80 °C, synaptosomes were placed in a 3 cm thick-walled polystyrene box with a lid. Synaptosomes were stored at −80 °C until use. Immediately prior to the experiments, synaptosomes were rapidly thawed in a 37 °C water bath and pelleted by centrifugation (20,000× g, 10 min, 4 °C) to remove the cryopreservation buffer. The pellet was resuspended in isotonic HEPES-glucose buffer (10 mM HEPES-NaOH, 130 mM NaCl, 5.4 mM KCl, 1.3 mM CaCl2, 0.9 mM MgCl2, 5.5 mM glucose, pH 7.4) and aliquoted according to the experimental design.
(§2) For all types of experiments, except for the glutamate release measurements, vehicle-treated (control) and CD-treated synaptosomes were incubated in 500 μL HEPES-glucose buffer with or without CDs, respectively, for 40 min at 37 °C. […] After incubation, the synaptosomes were centrifuged (20,000× g, 5 min, 4 °C) and used immediately for further analysis. A slightly different incubation method used in the glutamate release measurements is described in the corresponding section. Across all types of experiments, osmolarities of the CD solutions were adjusted and they were between 290 and 310 mOsm. At least three parallel measurements were carried out.
The cholesterol levels of the rat cerebral synaptosomes were measured with a Cholesterol Fluorometric Assay Kit (Cayman Chemical Company, Ann Arbor, MI, USA) with minor adjustments for the sample preparation. Briefly, after CD treatments, 2 mg of the synaptosomes were extracted with 10 vol chloroform–methanol 2:1 (v/v) to gain a lipid extract. The samples were centrifuged (20,000× g, 5 min, 4 °C) and then the supernatant was evaporated to dryness under a nitrogen stream (Zymark TurboVap LV) in a 37 °C water bath. The extracts were resuspended and diluted in the assay buffer (1.2 mL/mg synaptosome). Further preparation of the assay was according to the manufacturer’s protocol. Fluorescence was measured with a Varioskan LUX multimode microplate reader (Thermo Fisher Scientific, Waltham, MA, USA) at 530/590 nm. Cholesterol depletion in the CD-treated synaptosomes was calculated as the percentage of the cholesterol content of the vehicle-treated synaptosomes.
Data were analyzed by GraphPad Prism 8 (GraphPad Software, La Jolla, CA, USA). Concentration–response curves were constructed by the nonlinear regression method. One-way ANOVA followed by Bonferroni’s post hoc test was used for the data analysis in the case of the glutamate release experiments. All data are presented as means ± SEM of at least three parallel measurements. Differences were considered significant if p < 0.05.

[2] = system: cell model of GM1 gangliosidosis; design: method as in doi:10.1007/s10847-018-0835-8; conditions: immunofluorescence staining; cited from earlier work
[3] = system: gangliosides (GM1, GD1a, GD1b, GT1b, GQ1b) of rat cerebral synaptosomes; test: Ganglioside depletion from synaptosomes, remaining content by capillary electrophoresis; assay type: cell-based; conditions: for IC50: rat cerebral synaptosomes, 40 min exposure
Procedure: as §1, §2
The major neuronal ganglioside (GM1, GD1a, GD1b, GT1b, GQ1b) content of the rat cerebral synaptosome samples were measured by our previously published validated method. Briefly, after the CD treatments, gangliosides were extracted from 10 mg synaptosomes by liquid–liquid extraction. Ganglioside extracts were evaporated to dryness under a gentle stream of nitrogen (Zymark TurboVap LV, Hopkinton, MA, USA) in a 37 °C water bath. The dry ganglioside extract yielded from 10 mg synaptosomes was resuspended in 60 µL water, and centrifuged (20,000× g, 5 min, 4 °C) to remove the precipitate and the supernatant was analyzed by CE.
Ganglioside analysis was performed on a P/ACE MDQ capillary electrophoresis system (Beckman Coulter Inc., Brea, CA, USA) with UV detection at 200 nm. Uncoated fused silica capillaries with 75 µm internal diameter, […], respectively (Agilent Technologies, Santa Clara, CA, USA), were used. Separation was achieved by applying +25 kV voltage in a separation buffer containing 20 mM RAMEA and 100 mM sodium borate at pH 10.0. Ganglioside depletion in the CD-treated synaptosomes was calculated as the percentage of the ganglioside content of the vehicle-treated synaptosomes.
Data were analyzed by GraphPad Prism 8 (GraphPad Software, La Jolla, CA, USA). Concentration–response curves were constructed by the nonlinear regression method. One-way ANOVA followed by Bonferroni’s post hoc test was used for the data analysis in the case of the glutamate release experiments. […]

[4] = system: GM2 and GM3 immunoreactivity; design: method as in PMID 27231706; conditions: NPC mouse model; cited from earlier work
[5] = total = sum of individual gangliosides, read-out: Total ganglioside depletion IC50

Compound | Cholesterol depletion in the tested concentration range [1] | IC50 ([3]; read-out: GD1a depletion IC50) [mM] | IC50 ([3]; read-out: GD1b depletion IC50) [mM] | IC50 ([3]; read-out: GM1 depletion IC50) [mM] | IC50 ([3]; read-out: GQ1b depletion IC50) [mM] | IC50 [3, 5] [mM] | Accumulation of GM2 and GM3 immunoreactivity [4] | IC50 ([3]; read-out: GT1b depletion IC50) [mM] | further results
(2-hydroxypropyl)-alpha-cyclodextrin [HPACD] | without affecting the cholesterol content | 72.9 | 90.6 | 86.7 | 61.2 | 85.1 | much less effective compared to HPBCD | – | Lysosomal accumulation of GM1 [2]: reduced lysosomal accumulation of GM1; Ganglioside extraction at highest examined concentration ([3]; 100 mM): ~ 60%
CC(O)COC[C@H]1O[C@@H]2O[C@H]3[C@H](O)[C@@H](O)[C@@H](O[C@H]4[C@H](O)[C@@H](O)[C@@H](O[C@H]5[C@H](O)[C@@H](O)[C@@H](O[C@H]6[C@H](O)[C@@H](O)[C@@H](O[C@H]7[C@H](O)[C@@H](O)[C@@H](O[C@H]8[C@H](O)[C@@H](O)[C@@H](O[C@H]1[C@H](O)[C@H]2O)O[C@@H]8COCC(C)O)O[C@@H]7COCC(C)O)O[C@@H]6COCC(C)O)O[C@@H]5COCC(C)O)O[C@@H]4COCC(C)O)O[C@@H]3COCC(C)O (stereo partly drawn) [HPBCD, (2-hydroxypropyl)-beta-cyclodextrin] | – | – | – | – | – | – | reduces the accumulation of GM2 and GM3 immunoreactivity | – | IC50 ([1]; 40 min): 33.5 mM; IC50 ([3]; 40 min, read-out: GD1a depletion IC50): 83.7 mM; IC50 ([3]; 40 min, read-out: GD1b depletion IC50): 86.6 mM; IC50 ([3]; 40 min, read-out: GM1 depletion IC50): 80.8 mM; IC50 ([3]; 40 min, read-out: GQ1b depletion IC50): 85.1 mM; IC50 ([3]; 40 min, read-out: GT1b depletion IC50): 80.1 mM; IC50 ([3]; 40 min, total = sum of individual gangliosides, read-out: Total ganglioside depletion IC50): 83.3 mM; Ganglioside loss at 50% cholesterol depleting concentration ([3]; at 50% cholesterol depleting concentration): ~ 5%
randomly methylated alpha-cyclodextrin [RAMEA] | without affecting the cholesterol content | 25.1 | 26.4 | 29.1 | 30.3 | 26 | – | 24.2 | –
COC[C@H]1O[C@@H]2O[C@H]3[C@H](O)[C@@H](OC)[C@@H](O[C@H]4[C@H](O)[C@@H](OC)[C@@H](O[C@H]5[C@H](O)[C@@H](OC)[C@@H](O[C@H]6[C@H](O)[C@@H](OC)[C@@H](O[C@H]7[C@H](O)[C@@H](OC)[C@@H](O[C@H]8[C@H](O)[C@@H](OC)[C@@H](O[C@H]1[C@H](O)[C@H]2OC)O[C@@H]8COC)O[C@@H]7COC)O[C@@H]6COC)O[C@@H]5COC)O[C@@H]4COC)O[C@@H]3COC [DIMEB, heptakis(2,6-di-O-methyl)-beta-cyclodextrin] | – | 9.7 | 14.5 | 15 | 11.4 | 10.5 | – | 8.7 | Cholesterol extraction at 10 mM ([1]; 10 mM): approximately 50%; Cholesterol extraction at 30 mM ([1]; 30 mM): Nearly total extraction; IC50 [1]: 7.4 mM; Ganglioside extraction at 10 mM ([3]; 10 mM): approximately 50%; Ganglioside extraction at 30 mM ([3]; 30 mM): Nearly total extraction
